Reference: paper PMC2174406 (Environmental Health Perspectives, 2007)

How the values were obtained:
[1] = biological target: transthyretin (TTR) (Homo sapiens, UniProt P02766); assay: […]T4 displacement; format: binding; conditions: cited from earlier work
[2] = biological target: T1, thyroid peroxidase (TPO) (Homo sapiens, UniProt P07202); assay: guaiacol oxidation assay with digitonin-extracted recombinant TPO; format: cell-based
T1 sequence (P07202 19-933): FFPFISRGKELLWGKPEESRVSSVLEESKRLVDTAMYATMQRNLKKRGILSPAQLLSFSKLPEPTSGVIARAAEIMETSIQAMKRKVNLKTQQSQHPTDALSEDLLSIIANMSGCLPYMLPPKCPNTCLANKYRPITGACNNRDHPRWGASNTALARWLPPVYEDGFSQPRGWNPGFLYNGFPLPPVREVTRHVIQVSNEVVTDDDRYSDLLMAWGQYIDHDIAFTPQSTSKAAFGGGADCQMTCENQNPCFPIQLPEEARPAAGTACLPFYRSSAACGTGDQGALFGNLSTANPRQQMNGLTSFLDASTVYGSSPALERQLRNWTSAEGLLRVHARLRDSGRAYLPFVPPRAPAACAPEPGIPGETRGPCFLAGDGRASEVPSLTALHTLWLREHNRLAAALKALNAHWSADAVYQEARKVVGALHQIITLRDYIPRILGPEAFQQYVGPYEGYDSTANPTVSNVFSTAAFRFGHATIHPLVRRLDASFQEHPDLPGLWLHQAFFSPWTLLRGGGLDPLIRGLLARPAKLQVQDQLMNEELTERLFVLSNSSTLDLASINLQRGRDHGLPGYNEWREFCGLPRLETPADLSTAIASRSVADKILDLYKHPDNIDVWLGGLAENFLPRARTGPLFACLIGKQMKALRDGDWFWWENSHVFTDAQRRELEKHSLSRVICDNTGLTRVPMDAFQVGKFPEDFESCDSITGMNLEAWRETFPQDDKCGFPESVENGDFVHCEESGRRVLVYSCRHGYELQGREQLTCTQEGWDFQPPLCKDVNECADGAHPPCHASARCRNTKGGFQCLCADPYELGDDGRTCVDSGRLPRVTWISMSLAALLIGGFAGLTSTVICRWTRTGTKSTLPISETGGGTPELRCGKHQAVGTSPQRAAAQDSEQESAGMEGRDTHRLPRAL

| SMILES | IC50 [1] [nM] | IC50 [2] |
| --- | --- | --- |
| COc1cc2c(=O)c(-c3ccc(O)cc3)coc2cc1O [glycitein] | 200 | – |
| O=c1c(-c2ccc(O)cc2)coc2cc(O)ccc12 [daidzein] | 1800 | – |
| CC(C)(c1ccc(O)cc1)c1ccc(O)cc1 [bisphenol A] | – | the industrial chemicals 4-NP and BPA also inhibited TPO |
| O=c1c(-c2ccc(O)cc2)coc2cc(O)cc(O)c12 [genistein] | 70 | – |
